8 compounds from paper PMC9823356, “Inhibition of Cancer Cell Proliferation and Bacterial Growth by Silver(I) Complexes Bearing a CH3-Substituted Thiadiazole-Based Thioamide” (Molecules, 2023) can be followed below.

Assay [1] has as its system Bacillus cereus (B. cereus). Briefly: In vitro antibacterial activity, progressive double dilutions, culture turbidity. The format is cell-based. The source says: (§1) The growth of bacteria was estimated by measuring the turbidity of the culture, as previously reported. […] The pH of the media was adjusted to 7.0.
Assay [2] concerns Bacillus subtilis (B. subtilis). The assay is described as above. Format: cell-based.
Text: as §1

Assay [3] deals with Escherichia coli (E. coli). Described as above. The format is cell-based. Particulars: for MIC: ampicillin reference against E.coli (BL21).
Text: as §1

Assay [4] has as its system Staphylococcus aureus (S. aureus). The description is as above. The format is cell-based.
Text: as §1

For assay [5], the system named is MRC5 human normal lung cells. Briefly: MTT cytostatic/cytotoxic assay. Particulars: MRC5, 48 h treatment; for IC50: cytocidal/cytotoxic; for GI50: growth inhibition; for TGI: total growth inhibition. Format: cell-based. The procedure: (§2) The cell lines were obtained from the American Type of Culture collection (ATCC), except HuP-T3 which was kindly donated from University of Crete, School of Medicine, Greece, and were grown in different culture medium according to the instructions.
(§3) For the determination of the cell viability, it was employed the MTT assay. Cells were plated in 96-well plate at a density of 1 × 10^4 cells/mL per well and maintained for 72 h at 37 °C in a 5% CO2 incubator and grown as monolayers. […] The viability of cultured cells was estimated by a (3-(4,5-imethylthiazol-2-yl)-2,5-diphenyltetrazolium bromide (MTT) metabolic assay as previously described.
(§4) In brief, MTT (Sigma, St Louis, Missouri, USA) was dissolved in PBS in a concentration of 5 mg/mL, filter sterilized, and stored at 4 °C. Then, 50 μL of stock solution was added to each culture and incubated for 3 h at 37 °C. Formazan crystals were solubilized by DMSO (100 μL). Absorbance of the converted dye was measured at a wavelength of 540 nm on ELISA reader (VersaMax Microplate Reader Orleans, USA). […] Using seven absorbance measurements [time 24 h (Ct24), control growth 72 h (Ct72), and test growth in the presence of drug at five concentration levels (Tt72x)], the percentage of growth was calculated at each level of the drug concentrations. The percentage growth inhibition was calculated according to National Cancer Institute (NCI) as: {[(Tt72x) − (Ct24)]/[(Ct72) − (Ct24)]} × 100 for concentrations for which Tt72x>Ct24 and {(Tt72x) − (Ct24)]/(Ct24)} × 100 for concentrations for which Tt72x<Ct24. […] All experiments were carried out in triplicate. A significant difference was presumed to exist when p ≤ 0.05 (two tailed paired t test).

Assay [6] has as its system DMS114 small cell lung cancer cells. Briefly: MTT cytostatic/cytotoxic assay. Format: cell-based, human. The settings on record: DMS114, 48 h treatment; for LC50: cytocidal/cytotoxic, read-out: IC50 (the source's name); for GI50: growth inhibition; for TGI: total growth inhibition. The procedure:
as §2, §3
as §4, with “Using seven absorbance measurements [time 24 h (Ct24), control growth 72 h (Ct72), and test growth in the presence of drug at five concentration levels (Tt72x)], the percentage of growth was calculated at each level of the drug concentrations.” left out

Assay [7] concerns SKOV-3 ovarian cancer cells. Briefly: MTT cytostatic/cytotoxic assay. Format: cell-based, human. The settings on record: SKOV-3, 48 h treatment; for LC50: cytocidal/cytotoxic, read-out: IC50 (the source's name); for GI50: growth inhibition; for TGI: total growth inhibition. As to the method: as §2, §3
as §4, with “Using seven absorbance measurements [time 24 h (Ct24), control growth 72 h (Ct72), and test growth in the presence of drug at five concentration levels (Tt72x)], the percentage of growth was calculated at each level of the drug concentrations.” left out

Assay [8] has as its system Hup-T3 pancreatic adenocarcinoma cells. Briefly: MTT cytostatic/cytotoxic assay. The format is cell-based, human. Particulars: Hup-T3, 48 h treatment; for IC50: cytocidal/cytotoxic; for GI50: growth inhibition; for TGI: total growth inhibition. The procedure: as §2, §3, §4
In assay [9] the test system is PC3 prostate adenocarcinoma cells. The experiment in a line: MTT cytostatic/cytotoxic assay. The format is cell-based, human. Particulars: PC3, 48 h treatment; for LC50: cytocidal/cytotoxic, read-out: IC50 (the source's name); for GI50: growth inhibition; for TGI: total growth inhibition. As to the method:
as §2, §3, §4

Assay [10] is described as follows: Reduction of hydrogen peroxide. The settings on record: compound 0.1 mM, 20 min, phosphate buffer pH 7.4. The procedure:
In vitro antioxidant activity studies for 1–4 and their free ligands were performed in order to determine their ability to scavenge DPPH, and ABTS free radicals and to reduce H2O2 and was compared with the antioxidant capacity of reference compounds (NDGA, BHT, trolox and ascorbic acid).
The absorbance was measured at 230 nm after 20 min. The antioxidant activity of the compounds was expressed as percent reduction of H2O2 (%H2O2). Ascorbic acid (or vitamin C) was used as an appropriate standard.

The test system of a further assay is calf-thymus (CT) DNA. Briefly: CT DNA interaction by UV-visible spectroscopy. The settings on record: DMSO solution, upon addition of CT DNA; + hyperchromism, – hypochromism.
The mark [11] stands for this setting: value in parentheses, mean ± SD, read-out: IC50.
[12] abbreviates: Bacillus cereus, read-out: IC50.
Where [13] appears, read: Bacillus subtilis, read-out: IC50.
[14] abbreviates: Bacillus subtilis, read-out: MIC.
Setting [15] is: Escherichia coli, read-out: MIC.
Setting [16] is: Escherichia coli, read-out: IC50.
[17] abbreviates: Staphylococcus aureus, read-out: IC50.
Setting [18] is: Staphylococcus aureus, read-out: MIC.

≈ marks a conversion by molar mass, not a printed value. Where “and” joins values, the source holds several entries; their conditions need not be identical. Equal values may be shown once. Read-outs that look alike come from different tables or passages of the source.

Protocol for calf-thymus (CT) DNA: The UV-visible spectra of CT DNA solution (1.5 × 10^−4 M) were recorded in the presence of each compound at diverse [compound]/[DNA] mixing ratios (r).

Usually IC50 stands for the concentration that inhibits the measured activity by half. The term MIC denotes the smallest concentration in the dilution series that meets the test's criterion for growth inhibition. Usually GI50 stands for the concentration that inhibits growth by half. Low values mean greater sensitivity of the cells, high ones lower sensitivity of the cells. `Cc1n[nH]c(=S)s1.[Cl][Ag].c1ccc(P(c2ccccc2)c2ccccc2)cc1.c1ccc(P(c2ccccc2)c2ccccc2)cc1` [Compound 1, [AgCl(mtdztH)(PPh3)2]]: the IC50 in assay [1] is 81 µg/mL; in assay [1] (setting [11]), 101 ± 10.3 µM; in [2], 21 µg/mL; in [2] (setting [11]), 26 ± 4 µM; in assay [3], “higher than 100 μg/mL”; in assay [4] it was 16 µg/mL. Also, the half-inhibitory concentration (IC50) in assay [4] (setting [11]) was found to be 20 ± 3.2 µM; in assay [5] it was 9.2 ± 0.8 µM; in assay [8] it was 9.2 ± 0.3 µM. Further, the MIC is 100 µg/mL in assay [1], 100 µg/mL in [2], “higher than 100 μg/mL” in [3] and 100 µg/mL in assay [4]. In addition, the “activity against the Gram-(–) E. coli bacteria (in words)” value in assay [3] is “negligible activity”. In addition, the concentration for 50% growth inhibition (GI50) in assay [5] was 3 ± 0.5 µM; in assay [6], 1.9 ± 0.1 µM; in assay [7], 1.2 ± 0.2 µM; in [8], 2.2 ± 0.2 µM; in [9], 3 ± 0.3 µM. The TGI in assay [5] is recorded as 5.2±0.5 μΜ; in [6] it was 3.1±0.1 μΜ; in assay [7], 3.1±0.4 μΜ; in [8] it was 4.1±0.3 μΜ; in assay [9], 5.7±0.5 μΜ. Also, the LC50 in assay [6] amounted to 4.5 ± 0.3 µM; in assay [7] it was 5.7 ± 0.4 µM; in assay [9], 9.6 ± 0.5 µM. Further, in assay [10], the “H2O2 reducing ability (%H2O2)” value is 74.85±0.79%.

For the compound `O=C1O[C@H]([C@@H](O)CO)C(O)=C1O` [L-ascorbic acid, reference compound], the “H2O2 reducing ability (%H2O2)” value in assay [10] came to 60.80±0.20%.

In the case of `Cc1nnc(S)s1` [mtdztH, 5-methyl-1,3,4-thiadiazole-2-thiol, reference compound], the half-inhibitory concentration (IC50) in [1] (setting [12]) was determined as 21 µg/mL; in assay [1] (Bacillus cereus, value in parentheses, mean ± SD, read-out: IC50) it was 159 ± 8.9 µM; in assay [2] (setting [13]), 53 µg/mL; in assay [2] (Bacillus subtilis, value in parentheses, mean ± SD, read-out: IC50), 401 ± 16.2 µM; in [3] (setting [16]) it was 30 µg/mL; in assay [3] (Escherichia coli, value in parentheses, mean ± SD, read-out: IC50), 227 ± 6 µM. Moreover, the IC50 was 21 µg/mL in assay [4] (setting [17]) and 159 ± 9 µM in [4] (Staphylococcus aureus, value in parentheses, mean ± SD, read-out: IC50). The MIC in assay [1] (Bacillus cereus, read-out: MIC) is over 100 µg/mL; in [2] (setting [14]), over 100 µg/mL; in [3] (setting [15]), over 100 µg/mL; in assay [4] (setting [18]) it was over 100 µg/mL. The “H2O2 reducing ability (%H2O2)” value in [10] is 97.17±0.10%. In addition, in the assay on calf-thymus (CT) DNA, the “percentage of hyper-/hypochromism ΔA/Aο” value was “–12%”.

In [5], `N.N.[Cl][Pt][Cl]` [Cisplatin, reference compound] had a half-inhibitory concentration (IC50) of 36 ± 2 µM, a GI50 of 8 ± 1 µM and a TGI of 24±2 μΜ.

As to `c1ccc(P(CCP(c2ccccc2)c2ccccc2)c2ccccc2)cc1` [dppe, 1,2-bis(diphenylphosphino)ethane, reference compound], the IC50 in assay [1] (setting [12]), in assay [2] (setting [13]), in assay [3] (setting [16]) and in assay [4] (setting [17]) was over 100 µg/mL in each case. The minimum inhibitory concentration (MIC) was over 100 µg/mL in assay [1] (Bacillus cereus, read-out: MIC); over 100 µg/mL in assay [2] (setting [14]); over 100 µg/mL in assay [3] (setting [15]); over 100 µg/mL in assay [4] (setting [18]). For the same compound, the “H2O2 reducing ability (%H2O2)” value in assay [10] is 92.64±0.71%.

As for `c1ccc(P(c2ccccc2)c2ccccc2)cc1` [PPh3, thriphenylphosphine, reference compound], the IC50 in assay [1] is 70 µg/mL; in assay [1] (setting [11]), 267 ± 9 µM; in assay [2], “higher than 100 μg/mL”; in assay [2] (setting [11]) it was over 380 µM; in assay [3] it was 51 µg/mL; in assay [3] (setting [11]) it was 194 ± 2 µM. Besides, the IC50 came to 70 µg/mL in assay [4] and 267 ± 2.2 µM in assay [4] (setting [11]). Further, the MIC result in assay [1], in assay [2], in assay [3] and in [4] was “higher than 100 μg/mL” each time. The “H2O2 reducing ability (%H2O2)” value in [10] is given as 87.96±1.32%.

Turning to `Cc1nnc([S][Ag])s1.c1ccc(P(c2ccccc2)c2ccccc2)cc1.c1ccc(P(c2ccccc2)c2ccccc2)cc1.c1ccc(P(c2ccccc2)c2ccccc2)cc1` [Compound 2, [Ag(mtdzt)(PPh3)3]], the 50% inhibitory concentration (IC50) was 12.5 µg/mL in assay [1]; 12 ± 1.4 µM in assay [1] (setting [11]); 20 µg/mL in assay [2]; 19 ± 2.8 µM in assay [2] (setting [11]); “higher than 100 μg/mL” in [3]; 17 µg/mL in assay [4]. The IC50 worked out at 16 ± 2.6 µM in assay [4] (setting [11]), 4.1 ± 0.06 µM in [5] and 4.5 ± 0.2 µM in assay [8]. The MIC is 100 µg/mL in [1], 100 µg/mL in [2], “higher than 100 μg/mL” in assay [3] and 100 µg/mL in assay [4]. The “activity against the Gram-(–) E. coli bacteria (in words)” value in assay [3] was “negligible activity”. The 50% growth inhibitory concentration (GI50) was determined as 2 ± 0.02 µM in assay [5]; 1.2 ± 0.05 µM in assay [6]; 1.9 ± 0.2 µM in assay [7]; 1.9 ± 0.2 µM in assay [8]; 2 ± 0.05 µM in [9]. For the same compound, the TGI in [5] is reported as 3.0±0.05 μΜ; in assay [6], 2.6±0.1 μΜ; in assay [7], 3.0±0.3 μΜ; in [8], 3.2±0.2 μΜ; in assay [9] it was 3.2±0.12 μΜ. The LC50 in [6] came to 4 ± 0.25 µM; in [7], 4.1 ± 0.3 µM; in assay [9], 4.4 ± 0.15 µM. Besides, in assay [10], the “H2O2 reducing ability (%H2O2)” value is 80.59±0.55% and 80%.

For `CC1(C)S[C@@H]2[C@H](NC(=O)[C@H](N)c3ccccc3)C(=O)N2[C@H]1C(=O)O` [Ampicillin, reference compound], in assay [3] (setting [15]), the MIC was 100 µg/mL (≈ 286 µM).
